The record followed here is ChEMBL document CHEMBL1147026, “Synthesis of pseudopeptides based L-tryptophan as a potential antimicrobial agent” (Bioorg Med Chem Lett, 2007).

Values after ≈ are worked out from the molar mass of the structure shown.

Data set [1] has as its system Staphylococcus aureus. In words: Antibacterial activity against methicillin-susceptible Staphylococcus aureus ATCC 25923 after 24 hrs by two fold dilution method. The format is functional. As to conditions: ATCC 25923, 24 h.
For data set [2], the system named is Staphylococcus aureus. In words: Antibacterial activity against methicillin-resistant Staphylococcus aureus CMAH 0430 after 24 hrs by two fold dilution method. The format is functional.
Data set [3] concerns Staphylococcus aureus. In words: Antibacterial activity against methicillin-resistant Staphylococcus aureus CMAH 0504 after 24 hrs by two fold dilution method. The format is functional.
Data set [4] relates to Staphylococcus aureus. In words: Antibacterial activity against methicillin-resistant Staphylococcus aureus CMAH 0515 after 24 hrs by two fold dilution method. The format is functional.
For data set [5], the system named is Bacillus subtilis. In words: Antimicrobial activity against Bacillus subtilis after 24 hrs by two fold dilution method. The format is functional.
Data set [6] concerns Escherichia coli. In words: Antimicrobial activity against Escherichia coli ATCC 25922 after 24 hrs by two fold dilution method. The format is functional. The following applies: ATCC 25922, 24 h.
Data set [7] relates to Pseudomonas aeruginosa. In words: Antimicrobial activity against Pseudomonas aeruginosa ATCC 27853 after 24 hrs by two fold dilution method. The format is functional. The following applies: ATCC 27853, 24 h.
In data set [8] the test system is Proteus vulgaris. In words: Antimicrobial activity against Proteus vulgaris CMCC(B) 49001 after 24 hrs by two fold dilution method. The format is functional.
For data set [9], the system named is Klebsiella aerogenes. In words: Antibacterial activity against Enterobacter aerogenes CMCC(B) 45103 after 24 hrs by two fold dilution method. The format is functional.
Data set [10] concerns Micrococcus luteus. In words: Antimicrobial activity against Micrococcus luteus CMCC(B) 28001 after 24 hrs by two fold dilution method. The format is functional.
A short description of data set [11]: Toxicity in human erythrocytes assessed as haemolysis upto 4000 ug/mL. As to conditions: read-out: Activity. The format is cell-based, Erythrocyte.
Data set [12] concerns Candida albicans. In words: Antifungal activity against Candida albicans ATCC 10231 after 48 to 72 hrs by broth microdilution method. The format is functional. (In general: Broth dilution looks for growth in wells or tubes with falling amounts of substance.)
The subject of data set [13] is Candida albicans. In words: Antifungal activity against Candida albicans CMAH 0501 after 48 to 72 hrs by broth microdilution method. The format is functional.
Data set [14] concerns Candida albicans. In words: Antifungal activity against Candida albicans CMAH 0503 after 48 to 72 hrs by broth microdilution method. The format is functional.
The test system of data set [15] is Candida albicans. In words: Antifungal activity against Candida albicans CMAH 0507 after 48 to 72 hrs by broth microdilution method. The format is functional.
For data set [16], the system named is Candida albicans. In words: Antifungal activity against Candida albicans CMAH 0511 after 48 to 72 hrs by broth microdilution method. The format is functional.
Data set [17] deals with Candida albicans. In words: Antifungal activity against fluconazole-resistant Candida albicans CMAH 0520 after 48 to 72 hrs by broth microdilution method. The format is functional.
Data set [18] deals with Candida albicans. In words: Antifungal activity against Candida albicans CMAH 0527 after 48 to 72 hrs by broth microdilution method. The format is functional.
Data set [19] has as its system Candida albicans. In words: Antifungal activity against Candida albicans CMAH 0572 after 48 to 72 hrs by broth microdilution method. The format is functional.
For data set [20], the system named is Candida albicans. In words: Antifungal activity against Candida albicans CMAM 0577 after 48 to 72 hrs by broth microdilution method. The format is functional.
Data set [21] concerns Candida albicans. In words: Antifungal activity against Candida albicans CMAM 0592 after 48 to 72 hrs by broth microdilution method. The format is functional.
In data set [22] the test system is Candida albicans. In words: Antifungal activity against Candida albicans CMAM 0594 after 48 to 72 hrs by broth microdilution method. The format is functional.
Data set [23] has as its system Candida albicans. In words: Antifungal activity against fluconazole-resistant Candida albicans CMAM 0597 after 48 to 72 hrs by broth microdilution method. The format is functional.
For data set [24], the system named is Cryptococcus neoformans. In words: Antifungal activity against Cryptococcus neoformans ATCC 90112 after 48 to 72 hrs by broth microdilution method. The format is functional.
Data set [25] has as its system Saccharomyces cerevisiae. In words: Antimicrobial activity against Saccharomyces cerevisiae after 48 to 72 hrs by broth microdilution method. The format is functional.
Data set [26] concerns Rhodotorula glutinis. In words: Antimicrobial activity against Rhodotorula glutinis SYM 2209 after 48 to 72 hrs by broth microdilution method. The format is functional.
The test system of data set [27] is Aspergillus sp. In words: Antifungal activity against Aspergillus sp. after 48 to 72 hrs by broth microdilution method. The format is functional. As to conditions: Aspergillus sp.

As usually defined, the MBC is the lowest tested concentration that kills the bacteria rather than only halting them. The low end stands for greater bactericidal potency, the high end for weaker bactericidal potency. The term MIC denotes the smallest concentration in the dilution series that meets the test's criterion for growth inhibition. Read a high MIC as weaker potency. `O=C(N[C@H](CO)[C@H](O)c1ccc([N+](=O)[O-])cc1)C(Cl)Cl` [CHLORAMPHENICOL]: the MBC in data set [1] was 1 µg/mL (≈ 3.09 µM); in data set [2], 2 µg/mL (≈ 6.19 µM); in data set [3], 2 µg/mL (≈ 6.19 µM); in data set [4], 4 µg/mL (≈ 12.4 µM); in [5], 2 µg/mL (≈ 6.19 µM); in [6], 4 µg/mL (≈ 12.4 µM). Further, the MBC in data set [7] amounted to 64 µg/mL (≈ 198 µM); in data set [8], 0.25 µg/mL (≈ 0.774 µM); in data set [9], 2 µg/mL (≈ 6.19 µM); in data set [10], 4 µg/mL (≈ 12.4 µM). Besides, the MIC is 1 µg/mL (≈ 3.09 µM) in data set [1]; 1 µg/mL (≈ 3.09 µM) in data set [2]; 2 µg/mL (≈ 6.19 µM) in data set [3]; 2 µg/mL (≈ 6.19 µM) in data set [4]; 2 µg/mL (≈ 6.19 µM) in data set [5]; 2 µg/mL (≈ 6.19 µM) in data set [6]. Also, the MIC in data set [7] was found to be 32 µg/mL (≈ 99 µM); in data set [8], 0.25 µg/mL (≈ 0.774 µM); in [9], 2 µg/mL (≈ 6.19 µM); in data set [10], 2 µg/mL (≈ 6.19 µM). Besides, the hemolysis in data set [11] was 14%.
The MIC50 is an inhibitory concentration at the 50% level, which refers to growth in some studies and to a panel of isolates in others. Lower therefore signals higher susceptibility. As usually defined, the MIC90 is an inhibitory concentration at the 90% level, which refers to growth in some studies and to a panel of isolates in others. As for `OC(Cn1cncn1)(Cn1cncn1)c1ccc(F)cc1F` [FLUCONAZOLE], the MIC in [12] is 8 µg/mL (≈ 26.1 µM); in data set [13], 16 µg/mL (≈ 52.2 µM); in [14], 32 µg/mL (≈ 104 µM); in data set [15] it was 64 µg/mL (≈ 209 µM); in [16], 16 µg/mL (≈ 52.2 µM); in [17], above 64 µg/mL. The MIC in data set [18] was 64 µg/mL (≈ 209 µM); in data set [19], 64 µg/mL (≈ 209 µM); in data set [20] it was 64 µg/mL (≈ 209 µM); in [21], 32 µg/mL (≈ 104 µM); in data set [22], 64 µg/mL (≈ 209 µM); in [23], above 64 µg/mL. Also, the MIC in data set [24] was 16 µg/mL (≈ 52.2 µM); in [25] it was 4 µg/mL (≈ 13.1 µM); in data set [26] it was above 64 µg/mL; in [27], above 64 µg/mL. The compound further registered an MIC50 in data set [27] above 64 µg/mL. In addition, the MIC90 in data set [27] was above 64 µg/mL.
Take `NC[C@H]1O[C@H](O[C@H]2[C@H](O)[C@@H](O[C@H]3O[C@H](CO)[C@@H](O)[C@H](N)[C@H]3O)[C@H](N)C[C@@H]2N)[C@H](O)[C@@H](O)[C@@H]1O` [KANAMYCIN]: the MBC in data set [1] is 0.5 µg/mL (≈ 1.03 µM); in [5], 4 µg/mL (≈ 8.26 µM); in data set [6], 0.25 µg/mL (≈ 0.516 µM); in [7], above 128 µg/mL; in data set [8], 0.5 µg/mL (≈ 1.03 µM); in data set [9], 0.25 µg/mL (≈ 0.516 µM). The compound further yielded an MBC in data set [10] of 0.25 µg/mL (≈ 0.516 µM). Further, the MIC was 0.25 µg/mL (≈ 0.516 µM) in [1]; above 64 µg/mL in data set [2]; above 64 µg/mL in [3]; above 64 µg/mL in data set [4]; 4 µg/mL (≈ 8.26 µM) in data set [5]; 0.25 µg/mL (≈ 0.516 µM) in data set [6]. Moreover, the MIC is 64 µg/mL (≈ 132 µM) in data set [7], 0.25 µg/mL (≈ 0.516 µM) in data set [8], 0.25 µg/mL (≈ 0.516 µM) in [9] and 0.25 µg/mL (≈ 0.516 µM) in [10].
